Here are results for 8 compounds from ChEMBL document CHEMBL1146322, “Synthesis and biological evaluation of some 5-ethoxycarbonyl-6-isopropylamino-4-(substitutedphenyl)aminopyrimidines as potent analgesic and anti-inflammatory agents” (Bioorg Med Chem Lett, 2007).

The test system of data set [1] is Rattus norvegicus. The data set can be described thus: Antiinflammatory activity in rat at 50 mg/kg, po. Type of data set: functional.
Data set [2] concerns Mus musculus. The experiment in a line: Analgesic activity in Albino mouse assessed as inhibition of acetic acid-induced writhing at 50 mg/kg, po. Type of data set: functional.
The species entered for data set [3] is Rattus norvegicus. The experiment in a line: Toxicity in rat assessed as ulcerogenic potential. Type of data set: organism-based. The following applies: in vivo.

One may read the inhibition in vivo as the relative decrease from the control value, in per cent. For the compound `CCOC(=O)c1c(Nc2ccc([N+](=O)[O-])cc2)ncnc1NC(C)C`, the figures for the inhibition in vivo at 50 mg/kg in data set [1] and in data set [2] were 84.6% and 77.4%, respectively.
In the case of `CCOC(=O)c1c(Nc2ccc(C)cc2)ncnc1NC(C)C`, the UI in data set [3] is on record as 0.29. In addition, the figures for the inhibition in vivo at 50 mg/kg in data set [1] and in data set [2] were 89.7% and 72%, respectively.
Take `CCOC(=O)c1c(Nc2ccc(S(N)(=O)=O)cc2)ncnc1NC(C)C`: the UI in data set [3] amounted to 0.241. Further, the inhibition in vivo at 50 mg/kg in data set [1] was 87.7%; in data set [2] it was 72.6%.
For `CCOC(=O)c1c(Nc2ccc(Cl)cc2)ncnc1NC(C)C`, the inhibition in vivo at 50 mg/kg worked out at 30.9% in data set [1] and 70.2% in data set [2].
`CCOC(=O)c1c(Nc2ccc(OC)cc2)ncnc1NC(C)C`: the inhibition in vivo at 50 mg/kg in data set [1] stood at 62.7%; in data set [2] it was 85.1%.
Turning to `CCOC(=O)c1c(NC(C)C)ncnc1Oc1ccccc1`, the figures for the inhibition in vivo at 50 mg/kg in data set [1] and in data set [2] were 55.5% and 70.2%, respectively.
With `Cc1ccc(-c2cc(C(F)(F)F)nn2-c2ccc(S(N)(=O)=O)cc2)cc1` [CELECOXIB], in data set [3], the UI was 0.104. This compound yielded an inhibition in vivo at 50 mg/kg in data set [1] of 82.1%.
For `O=C([O-])Cc1ccccc1Nc1c(Cl)cccc1Cl.[Na+]` [DICLOFENAC SODIUM], the UI in data set [3] was determined as 0.805. The inhibition in vivo at 50 mg/kg in data set [2] stood at 78%.
